Target: T1, hDGAT1 (Homo sapiens, UniProt O75907)
T1 sequence (O75907 1-488): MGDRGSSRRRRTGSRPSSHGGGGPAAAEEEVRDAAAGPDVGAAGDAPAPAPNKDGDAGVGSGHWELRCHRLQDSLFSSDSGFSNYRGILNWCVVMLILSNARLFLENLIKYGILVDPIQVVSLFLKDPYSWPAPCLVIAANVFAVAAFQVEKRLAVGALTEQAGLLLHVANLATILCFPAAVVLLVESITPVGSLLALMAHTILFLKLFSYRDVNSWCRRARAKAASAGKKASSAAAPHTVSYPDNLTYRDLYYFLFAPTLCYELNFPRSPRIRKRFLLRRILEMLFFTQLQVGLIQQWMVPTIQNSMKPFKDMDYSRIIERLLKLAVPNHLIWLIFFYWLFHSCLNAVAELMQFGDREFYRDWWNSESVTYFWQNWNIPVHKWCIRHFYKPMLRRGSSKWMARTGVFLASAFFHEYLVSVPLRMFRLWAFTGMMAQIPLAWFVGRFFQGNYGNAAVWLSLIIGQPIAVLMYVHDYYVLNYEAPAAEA
Test: In-vitro DGAT1 assay (14C oleoyl CoA, hDGAT1 microsomes from Sf9 cells)
Settings: for inhibition at 1 µM: read-out: % Inhibition of hDGAT1; for % Inhibition of hDGAT1: at 1 μM
Protocol: Sf9 cells were seeded in spinner flasks on day 0 at a cell density of 1×10^6 and infected on day 1 with hDGAT1 baculovirus at a multiplicity of infection (MOI) of 5 and a cell density of 2×10^6. On day 3 (or 66-72 h), cells were harvested and centrifuged at 2500×g for 10 min. Pellet was resuspended in lysis buffer (100 mM sucrose, 50 mM KCl, 40 mM KH2PO4, 30 mM EDTA, pH 7.2) and passed through 21-gauge needle approximately 10 times. […] The supernatant was subjected to centrifugation at 35,000 rpm in a Beckman Ti-45 rotor at 4° C. for 1 h. The resultant pellet containing the microsomes wasere resuspended overnight in 1 mL of lysis buffer and total protein concentration was estimated using Bradford Reagent. Microsomes were aliquoted and stored at −80° C.
Frozen aliquots of hDGAT1 containing microsomes were thawed (5-10 mg/mL total protein) on ice and diluted to a working stock of 1 mg/mL with DGAT Assay Buffer (DAB).
The assay was performed in duplicates in a reaction volume of 100 μL. […] Procedure:
The reaction was started by the addition of 2.5 μL of 1 mg/mL of microsomes (iv) to the mixture and incubated at 37° C. for 10 min. […] The mixture was vortexed and the triglycerides formed were extracted into the organic heptane phase.

SMILES | inhibition at 1 µM | % Inhibition of hDGAT1
Cc1ccc(NC(=O)Nc2ccc(-c3ccc4c(c3)CN([C@H](C(=O)O)C(C)C)C4=O)cc2)cc1 [Example 241, (S)-3-Methyl-2-(1-oxo-5-(4-(3-p-tolylureido)phenyl)isoindolin-2-yl)butanoic acid] | > 50% | 
CC(C)[C@H](C(=O)O)N1Cc2ccc(-c3ccc(NC(=O)c4ccc(-c5ccccc5)cc4)cc3)cc2C1=O [Example 541, (R)-2-(6-(4-([1,1′-Biphenyl]-4-ylcarboxamido)phenyl)-1-oxoisoindolin-2-yl)-3-methylbutanoic acid] |  | ++ (>50% Inhibition)
CC(C)[C@@H](C(=O)O)N1Cc2ccc(-c3ccc(NC(=O)c4ccc(F)cc4)cc3)cc2C1=O [Example 100, (S)-2-(6-(4-(4-Fluorobenzamido)phenyl)-1-oxoisoindolin-2-yl)-3-methylbutanoic acid] | > 50% | 
O=C(Nc1ccc(-c2ccc3c(c2)C(=O)N(C2CCCC(C(=O)O)C2)C3)cc1)c1ccc(-c2ccccc2)cc1 (stereo not shown) [Example 545, 3-(6-(4-([1,1′-Biphenyl]-4-ylcarboxamido)phenyl)-1-oxoisoindolin-2-yl)cyclo hexane carboxylic acid] |  | ++ (>50% Inhibition)
CCCCCCCCc1ccc(C(=O)Nc2ccc(-c3ccc4c(c3)C(=O)N([C@H](C(=O)O)C(C)C)C4)cc2)cc1 [Example 172, (S)-3-Methyl-2-(6-(4-(4-octylbenzamido)phenyl)-1-oxoisoindolin-2-yl)butanoic acid] | > 50% | 
COc1ccc(NC(=O)Nc2ccc(-c3ccc4c(c3)CN([C@H](C(=O)O)C(C)C)C4=O)cc2)cc1 [Example 249, (S)-2-(5-(4-(3-(4-Methoxyphenyl)ureido)phenyl)-1-oxoisoindolin-2-yl)-3-methylbutanoic acid] | > 50% | 
CC(C)[C@@H](C(=O)O)N1Cc2ccc(-c3ccc(NC(=O)Nc4ccccc4Cl)cn3)cc2C1=O [Example 394, (S)-2-(6-(5-(3-(2-Chlorophenyl)ureido)pyridin-2-yl)-1-oxoisoindolin-2-yl)-3-methylbutanoic acid] | > 50% | 
CCCCCCCCCc1ccc(C(=O)Nc2ccc(-c3ccc4c(c3)C(=O)N([C@H](C(=O)O)C(C)C)C4)cc2)cc1 [Example 186, (S)-3-Methyl-2-(6-(4-(4-nonylbenzamido)phenyl)-1-oxoisoindolin-2-yl)butanoic acid] | > 50% | 
O=C(Nc1ccc(-c2ccc3c(c2)C(=O)N([C@H]2CC[C@H](C(=O)O)CC2)C3)cc1)c1ccc(Cl)cc1 [Example 561, (1r,4r)-4-(6-(4-(4-Chlorobenzamido)phenyl)-1-oxoisoindolin-2-yl)cyclohexane carboxylic acid] |  | + (10-50% Inhibition)
O=C(Nc1ccc(-c2ccc3c(c2)C(=O)N(C2CCCC(C(=O)O)C2)C3)cc1)c1cccc(Cl)c1 (stereo not shown) [Example 547, 3-(6-(4-(3-Chlorobenzamido)phenyl)-1-oxoisoindolin-2-yl)cyclohexane carboxylic acid] | > 50% | 
CC(C)[C@@H](C(=O)O)N1Cc2ccc(-c3ccc(NC(=O)c4ccc(-c5nccs5)cc4)cc3)cc2C1=O [Example 647, (S)-3-Methyl-2-(1-oxo-6-(4-(4-(thiazol-2-yl)benzamido)phenyl)isoindolin-2-yl)butanoic acid] | > 50% | 
C[C@@H](C(=O)O)N1Cc2ccc(-c3ccc(NC(=O)Nc4cccc(C(F)(F)F)c4)cc3)cc2C1=O [Example 337, (S)-2-(1-Oxo-6-(4-(3-(3-(trifluoromethyl)phenyl)ureido)phenyl)isoindolin-2-yl)propanoic acid] | > 50% | 
Cc1cc(C(=O)Nc2ccc(-c3ccc4c(c3)C(=O)N([C@H](C(=O)O)C(C)C)C4)cc2)ccc1F [Example 162, (S)-2-(6-(4-(4-Fluoro-3-methylbenzamido)phenyl)-1-oxoisoindolin-2-yl)-3-methyl butanoic acid] | > 50% | 
COc1ccc(C(=O)Nc2ccc(-c3ccc4c(c3)C(=O)N([C@H](C(=O)O)C(C)C)C4)cc2)cc1OC [Example 142, (S)-2-(6-(4-(3,4-Dimethoxybenzamido)phenyl)-1-oxoisoindolin-2-yl)-3-methyl butanoic acid] | 10 to 50% | 
CC(C)[C@@H](C(=O)O)N1Cc2ccc(-c3ccc(NC(=O)c4c(F)cccc4F)cc3)cc2C1=O [Example 138, (S)-2-(6-(4-(2,6-Difluorobenzamido)phenyl)-1-oxoisoindolin-2-yl)-3-methyl butanoic acid] | 10 to 50% | 
Cc1ccc(NC(=O)Nc2ccc(-c3ccc4c(c3)C(=O)N([C@H](C(=O)O)C(C)C)C4)cc2F)cc1C [Example 436, (S)-2-(6-(4-(3-(3,4-Dimethylphenyl)ureido)-3-fluorophenyl)-1-oxoisoindolin-2-yl)-3-methylbutanoic acid] | > 50% | 

SMILES | inhibition at 1 µM | % Inhibition of hDGAT1
O=C(Nc1ccc(-c2ccc3c(c2)C(=O)N([C@@H]2CCC[C@@H]2C(=O)O)C3)cc1)c1ccc(C(F)(F)F)cc1 [Example 598, (1S,2R)-2-(1-Oxo-6-(4-(4-(trifluoromethyl)benzamido)phenyl)isoindolin-2-yl)cyclopentanebcarboxylic acid] |  | ++ (>50% Inhibition)
CCCCOc1ccc(C(=O)Nc2ccc(-c3ccc4c(c3)C(=O)N([C@H](C(=O)O)C(C)C)C4)c(C)c2)cc1 [Example 472, (S)-2-(6-(4-(4-Butoxybenzamido)-2-methylphenyl)-1-oxoisoindolin-2-yl)-3-methylbutanoic acid] | > 50% | 
Cc1ccc(NC(=O)Nc2ccc(-c3ccc4c(c3)C(=O)N([C@H](C(=O)O)C(C)C)C4)nc2)cc1C [Example 398, (S)-2-(6-(5-(3-(3,4-Dimethylphenyl)ureido)pyridin-2-yl)-1-oxoisoindolin-2-yl)-3-methylbutanoic acid] | > 50% | 
O=C(Nc1ccc(-c2ccc3c(c2)C(=O)N(C2CCCC(C(=O)O)C2)C3)cc1)c1ccc(Cl)cc1 (stereo not shown) [Example 549, 3-(6-(4-(4-Chlorobenzamido)phenyl)-1-oxoisoindolin-2-yl)cyclohexane carboxylic acid] | > 50% | 
CC(C)[C@@H](C(=O)O)N1Cc2ccc(-c3ccc(NC(=O)c4ccc5ccccc5c4)c(F)c3)cc2C1=O [Example 450, (S)-2-(6-(4-(2-Naphthamido)-3-fluorophenyl)-1-oxoisoindolin-2-yl)-3-methyl butanoic acid] | > 50% | 
O=C(Nc1ccc(-c2ccc3c(c2)C(=O)N(C2(C(=O)O)CCCC2)C3)cc1)c1ccc(-c2ccccc2)cc1 [Example 529, 1-(6-(4-([1,1′-Biphenyl]-4-ylcarboxamido)phenyl)-1-oxoisoindolin-2-yl)cyclopentane carboxylic acid] |  | ++ (>50% Inhibition)
COc1cccc(NC(=S)Nc2ccc(-c3ccc4c(c3)CN([C@H](C(=O)O)C(C)C)C4=O)cc2)c1 [Example 263, (S)-2-(5-(4-(3-(3-Methoxyphenyl)thioureido)phenyl)-1-oxoisoindolin-2-yl)-3-methyl butanoic acid] | 10 to 50% | 
CC(C)[C@@H](C(=O)O)N1Cc2ccc(-c3ccc(NC(=O)Nc4ccccc4Cl)c(F)c3)cc2C1=O [Example 442, (S)-2-(6-(4-(3-(2-Chlorophenyl)ureido)-3-fluorophenyl)-1-oxoisoindolin-2-yl)-3-methylbutanoic acid] | > 50% | 
CC(C)[C@@H](C(=O)O)N1Cc2ccc(-c3ccc(NC(=O)c4cccc(Cl)c4)cc3)cc2C1=O [Example 108, (S)-2-(6-(4-(3-Chlorobenzamido)phenyl)-1-oxoisoindolin-2-yl)-3-methylbutanoic acid] | > 50% | 
CC(C)[C@@H](C(=O)O)N1Cc2ccc(-c3cnc(NC(=O)c4ccc(-c5ccccc5)cc4)cn3)cc2C1=O [Example 507, (S)-2-(6-(5-Biphenyl-4-ylcarboxamidopyrazin-2-yl)-1-oxoisoindolin-2-yl)-3-methylbutanoic acid] |  | ++ (>50% Inhibition)
CCCCOc1ccc(C(=O)Nc2ccc(-c3ccc4c(c3)C(=O)N([C@H](C(=O)O)C(C)C)C4)c(C(F)(F)F)c2)cc1 [Example 432, (S)-2-(6-(4-(4-Butoxybenzamido)-2-(trifluoromethyl)phenyl)-1-oxoisoindolin-2-yl)-3-methylbutanoic acid] | 10 to 50% | 
Cc1ccc(NC(=S)Nc2ccc(-c3ccc4c(c3)C(=O)N([C@H](C(=O)O)C(C)C)C4)cc2)cc1 [Example 54, (S)-3-Methyl-2-(1-oxo-6-(4-(3-p-tolylthioureido)phenyl)isoindolin-2-yl)butanoic acid] | 10 to 50% | 
O=C(Nc1ccc(-c2ccc3c(c2)C(=O)N(C2(C(=O)O)CCC2)C3)cc1)c1ccc(-c2ccccc2)cc1 [Example 576, 1-(6-(4-([1,1′-Biphenyl]-4-ylcarboxamido)phenyl)-1-oxoisoindolin-2-yl)cyclo butanecarboxylic acid] |  | ++ (>50% Inhibition)
COc1ccc(NC(=O)Nc2ccc(-c3ccc4c(c3)C(=O)N([C@H](C(=O)O)C(C)C)C4)cc2)cc1 [Example 28, (S)-2-(6-(4-(3-(4-Methoxyphenyl)ureido)phenyl)-1-oxoisoindolin-2-yl)-3-methylbutanoic acid] | 10 to 50% | 
CC(C)[C@@H](C(=O)O)N1Cc2ccc(-c3ccc(NC(=S)Nc4cccc(F)c4)cc3)cc2C1=O [Example 56, (S)-2-(6-(4-(3-(3-Fluorophenyl)thioureido)phenyl)-1-oxoisoindolin-2-yl)-3-methylbutanoic acid] | 10 to 50% | 

Reference: patent US8748426B2, “Inhibitors of diacylglycerol acyl transferase” (Piramal Enterprises Limited, priority 2009, dated 2014)
